The values below come from patent publication US10849985B2, “Method of targeting senescent cells” (Yeda Research and Development Co. Ltd., priority 2015, dated 2020).

One assay deals with T1, cell-surface Grp94 (Homo sapiens, UniProt P14625).
T1 construct: cell-surface Grp94 of live senescent etoposide-treated IMR90 cells after 24 hrs treatment with 10 or 100 μM GPM1; endogenous in cells; host or cells: IMR-90 human fibroblasts (ATCC), made senescent with etoposide
Nature of the assay: Flow cytometry of cell-surface Grp94 on live IMR90 cells. The settings on record: 3 days after etoposide treatment. In kind it is cell-based. An excerpt: FIGS. 3A-F. Grp94 translocates to cell-surface of senescent cells. (A) Flow cytometry histogram for the frequency cell-surface Grp94 of live IMR90 cells 0, 3, 7, 14, or 21 days after etoposide treatment. (B) Quantitative analysis of cell-surface Grp94 on live IMR90 cells 0, 3, 7, 14, or 21 days after etoposide treatment. (C) Scheme describing the mechanism of GPM1-mediated blockage of Grp94 translocation to cell-surface. (D) PrestoBlue viability assay for IMR90 growing or senescent Etoposide-treated cells after 24 hrs treatment with 1, 10, or 100 μM GPM1. […] (E) Flow cytometry histogram for the frequency of cell-surface Grp94 of live senescent etoposide-treated IMR90 cells after 24 hrs treatment with 10 or 100 μM GPM1. (F) Quantitative analysis of cell-surface Grp94 on live senescent etoposide-treated IMR90 cells after 24 hrs treatment with 10 or 100 μM GPM1.
IMR-90 cells were gently dissociated from plates using TripLE express reagent (12604-013, Thermo Fisher Scientific), and maintained in cold FACS buffer (PBS containing 1% FCS and 0.1% Sodium Azid) throughout all procedure. […] Cells were analyzed in a SORP-LSRII instrument (BD Biosciences). […] Cells were gated by their size (FSC/SSC), DAPI negative (live cells) and then analyzed for their fluorescence intensity at the wavelength of 647 (cell-surface Grp94 level), using FlowJo v10 software.

The next assay relates to cell surface Grp94. Nature of the assay: Cell-surface Grp94 of mouse embryonic fibroblasts. Format: cell-based. The settings on record: MEFs 14 days after Etoposide treatment compared to growing MEFs. On the procedure:
FIGS. 4A-E. Extracellular Grp94 on senescent cells mediate cytotoxicity of innate components in-vitro. (A) Western blot analysis for Grp94/β-Tubulin in Etoposide-treated IMR90 cells 4 days after transfection with siControl or siHSP90B1 (HSP90B1 is a gene coding for Grp94). (B) PrestoBlue viability assay for Etoposide-treated IMR90 4 days after Transfection with siControl or siHSP90B1. (C) Cytotoxicity of NK92 cells in cultures of IMR90 cells treated with siControl or siHSP90B1. NK92 were added for 1 hour at a ratio of 1:3 (D) Crystal Violet staining for IMR90 cells after co-culturing with MM6 monocytes in the presence of GPM1. (E) Quantitative analysis of cell-surface Grp94 of Mouse embryonic fibroblasts (MEFs) 14 days after Etoposide treatment compared to growing MEFs.
The levels of cell surface Grp94 were also examined in mouse embryonic fibroblast cells (MEFs). […] The relatively high correlation between localization of Grp94 in human and mouse cells implies that it may serve as a new marker for senescent cells.

Each structure is given as a SMILES string.

T1 sequence (P14625 22-803): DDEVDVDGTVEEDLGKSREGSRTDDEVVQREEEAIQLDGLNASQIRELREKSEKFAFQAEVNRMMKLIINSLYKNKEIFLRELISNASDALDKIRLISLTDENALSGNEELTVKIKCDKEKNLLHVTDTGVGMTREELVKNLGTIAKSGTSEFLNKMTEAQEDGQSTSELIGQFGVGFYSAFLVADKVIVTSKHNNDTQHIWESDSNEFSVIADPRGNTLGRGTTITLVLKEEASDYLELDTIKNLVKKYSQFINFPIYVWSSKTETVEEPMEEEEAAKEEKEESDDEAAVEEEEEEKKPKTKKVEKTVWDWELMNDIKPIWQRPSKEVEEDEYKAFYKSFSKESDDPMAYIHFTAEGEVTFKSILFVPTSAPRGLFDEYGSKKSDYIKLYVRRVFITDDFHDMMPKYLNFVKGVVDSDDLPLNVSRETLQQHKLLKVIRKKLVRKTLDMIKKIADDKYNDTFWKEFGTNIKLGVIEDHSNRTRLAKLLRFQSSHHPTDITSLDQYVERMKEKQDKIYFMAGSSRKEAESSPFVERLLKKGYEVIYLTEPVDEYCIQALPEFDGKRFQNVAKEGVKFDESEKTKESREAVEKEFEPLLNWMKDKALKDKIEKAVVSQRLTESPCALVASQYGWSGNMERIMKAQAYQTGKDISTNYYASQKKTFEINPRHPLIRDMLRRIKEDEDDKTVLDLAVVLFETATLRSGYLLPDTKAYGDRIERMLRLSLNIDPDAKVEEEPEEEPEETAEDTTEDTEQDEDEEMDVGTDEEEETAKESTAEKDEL

Turning to `COc1cc([C@@H]2c3cc4c(cc3[C@@H](O[C@@H]3O[C@@H]5CO[C@@H](C)O[C@H]5[C@H](O)[C@H]3O)[C@H]3COC(=O)[C@H]23)OCO4)cc(OC)c1O` [etoposide], the “cell-surface Grp94 levels” value on cell-surface Grp94 is listed as “not elevated”. The “cell surface Grp94” value in the assay with cell surface Grp94 is listed as “significant elevation”.
